From patent publication US12404289B2 (Gilead Sciences, Inc., priority 2020, dated 2025)
pEC50: −log10 of the molar value. Read-outs that look alike come from different tables or passages of the source.

Key:
Assay type in all cases: cell-based
[1] = tested on: Respiratory syncytial virus (RSV) strain A2; experiment: RSV antiviral assay (HEp-2, 96 well)
[2] = CC50 assay (cytopathology in HEp-2 cells); conditions: human, HEp-2 cells, 4 days, CellTiter-Glo, read-out: RSV CC50
Experimental: The cytopathology of compounds in HEp-2 cells is determined in the following manner. HEp-2 cells are suspended in DMEM+GlutaMAX (supplemented with 10% FBS and 1% Penicillin/Streptomycin) and seeded into 96 well plates (3×10^3/well). After a 4-hour incubation at 37° C.+5% CO2, three-fold serial dilutions of compounds are added to each well using an HP D300e digital dispenser. The cells are then incubated for 4 days at 37° C. and 5% CO2. The final volume in each well is 200 μL. Untreated wells are included as controls for 100% cell viability, while compounds treated with 5 uM puromycin are included as controls for 0% viability. Following the incubation, 100 μL of culture supernatant is removed from each well and replaced with 100 μL of CellTiter-Glo reagent (Promega, Madison, WI, Cat #G7573). The plates are then rocked for 2 minutes followed by a 10-minute incubation at 25° C. Compound-induced cytopathic effect is then assessed by measuring luminescence signal using and Envision plate reader. Values are normalized to the untreated DMSO and puromycin-treated controls (as 100% and 0% viability, respectively) and data is fit using non-linear regression analysis using XLfit4. The CC50 value for each compound is then determined as the concentration reducing cell viability by 50%.

[3] = tested on: Respiratory syncytial virus (RSV) strain A2; experiment: Hep-2 RSV2 384-well assay (EC50-HEP2-384); conditions: human respiratory syncytial virus, HEp-2, 96 h, HEp-2 cells, RSV A2, MOI=4, 4 days, Table 3
[4] = tested on: Recombinant respiratory syncytial virus expressing the firefly luciferase protein (RSV-Fluc); experiment: microbe, parasite or virus in culture; conditions: Table 4
[5] = tested on: Respiratory syncytial virus recombinant with luciferase (RSV-Luc5); experiment: microbe, parasite or virus in culture; conditions: Table 3
SARS-CoV-2 = SARS-CoV-2 antiviral assay (A549-hACE2, Nano luciferase); conditions: A549-hACE2 cells, SARS-CoV2-Nano, MOI 0.025, 48 h, Table 4, read-out: EC50 SARS CoV2
[6] = human respiratory syncytial virus, HEp-2, 96 h, read-out: EC50-RSV-HEP-2-96, HEp-2 cells, RSV A2, MOI=4, 4 days, 96 well, Table 2
[7] = human respiratory syncytial virus, NHBE, 72 h, read-out: EC50 RSVFluc NHBE 96, NHBE cells, RSV-Fluc, MOI of 0.1, three days, 96 well
[8] = human respiratory syncytial virus, HEp-2, 72 h, read-out: EC50 RSVFluc-Hep2 384, HEp-2 cells, RSV-Luc5, MOI=0.5, 3 days, 384 well
[9] = read-out: EC50 RSV HEP2 96, HEp-2 cells, RSV A2, MOI=4, 4 days, 96 well, Table 3
[10] = human respiratory syncytial virus, HEp-2, 96 h, read-out: EC50-RSV-HEP-2-96, HEp-2 cells, RSV A2, MOI=4, 4 days, 96 well, CellTiter-Glo, Table 1
[11] = Severe acute respiratory syndrome coronavirus 2, 48 h

COC(=O)[C@H](C)N[P@](=O)(OC[C@H]1O[C@@](C#N)(c2ccc3c(N)ncnn23)[C@H](O)[C@@H]1O)Oc1ccccc1
pEC50 [1, 6]: 6.84
CC50 at 4 days ([2]; Table 2): 48500 nM

CC(C)OC(=O)[C@H](C)N[P@](=O)(OC[C@H]1O[C@@](C#N)(c2ccc3c(N)ncnn23)[C@H](O)[C@@H]1O)Oc1ccccc1
pEC50 [1, 6]: 6.44
CC50 at 4 days ([2]; Table 2): > 9600 nM

CCOC(=O)[C@H](C)NP(=O)(OC[C@H]1O[C@@](C#N)(c2ccc3c(N)ncnn23)[C@H](O)[C@@H]1O)Oc1ccccc1 (stereo partly drawn)
pEC50 [1, 6]: 6.53
CC50 at 4 days ([2]; Table 2): > 70000 nM

C[C@H](NP(=O)(OC[C@H]1O[C@@](C#N)(c2ccc3c(N)ncnn23)[C@H](O)[C@@H]1O)Oc1ccccc1)C(=O)OC1CCC1 (stereo partly drawn)
pEC50 [1, 6]: 7.12
CC50 at 4 days ([2]; Table 2): 34200 nM

CCC(CC)COC(=O)[C@H](C)NP(=O)(OC[C@H]1O[C@@](C#N)(c2ccc3c(N)ncnn23)[C@H](OC(C)=O)[C@@H]1OC(C)=O)Oc1cccc2ccccc12 (single isomer, unassigned) [Example 78b]
pEC50 [3]: 7.12
pEC50 [4, 7]: 8.25
pEC50 [5, 8]: 7.47
pEC50 [1, 9]: 7.68
pEC50 (SARS-CoV-2): 7.70

CC(=O)O[C@H]1[C@@H](OC(C)=O)[C@](C#N)(c2ccc3c(N)ncnn23)O[C@@H]1COP(=O)(N[C@@H](C)C(=O)OC1CC2(CCC2)C1)Oc1cccc2ccccc12 (single isomer, unassigned) [Example 83b]
pEC50 [3]: 7.55
pEC50 ([4]; read-out: EC50 RSVFluc NHBE 96, NHBE cells, RSV-Fluc, MOI of 0.1, three days, 96 well): 8.15
pEC50 ([5]; read-out: EC50 RSVFluc-Hep2 384, HEp-2 cells, RSV-Luc5, MOI=0.5, 3 days, 384 well): 7.69
pEC50 [1, 9]: 8.14
pEC50 (SARS-CoV-2): 7.48

COC(=O)[C@H](C)N[P@](=O)(OC[C@H]1O[C@@](C#N)(c2ccc3c(N)ncnn23)[C@H](OC(=O)C(C)C)[C@@H]1OC(=O)C(C)C)Oc1ccccc1 [Example 4, (2R,3R,4R,5R)-2-(4-aminopyrrolo[2,1-f][1,2,4]triazin-7-yl)-2-cyano-5-((((S)—(((S)-1-methoxy-1-oxopropan-2-yl)amino)(phenoxy)phosphoryl)oxy)methyl)tetrahydrofuran-3,4-diyl bis(2-methylpropanoate)]
pEC50 [1, 10]: 7.03
CC50 at 4 days ([2]; Table 1): 5580 nM

CCC(=O)O[C@H]1[C@@H](OC(=O)CC)[C@](C#N)(c2ccc3c(N)ncnn23)O[C@@H]1CO[P@@](=O)(N[C@@H](C)C(=O)OC)Oc1ccccc1 [Example 5, (2R,3R,4R,5R)-2-(4-aminopyrrolo[2,1-f][1,2,4]triazin-7-yl)-2-cyano-5-((((S)—(((S)-1-methoxy-1-oxopropan-2-yl)amino)(phenoxy)phosphoryl)oxy)methyl) tetrahydrofuran-3,4-diyl Dipropionate]
pEC50 [1, 10]: 6.96
CC50 at 4 days ([2]; Table 1): 9540 nM

COC(=O)[C@H](C)N[P@](=O)(OC[C@H]1O[C@@](C#N)(c2ccc3c(N)ncnn23)[C@H](OC(C)=O)[C@@H]1OC(C)=O)Oc1ccccc1 [Example 6, (2R,3R,4R,5R)-2-(4-aminopyrrolo[2,1-f][1,2,4]triazin-7-yl)-2-cyano-5-((((S)—(((S)-1-methoxy-1-oxopropan-2-yl)amino)(phenoxy)phosphoryl)oxy)methyl) tetrahydrofuran-3,4-diyl Diacetate]
pEC50 [1, 10]: 6.72
CC50 at 4 days ([2]; Table 1): 26400 nM

CCC(=O)O[C@H]1[C@@H](OC(=O)CC)[C@](C#N)(c2ccc3c(N)ncnn23)O[C@@H]1CO[P@@](=O)(N[C@@H](C)C(=O)OC(C)C)Oc1ccccc1 [Example 8, (2R,3R,4R,5R)-2-(4-aminopyrrolo[2,1-f][1,2,4]triazin-7-yl)-2-cyano-5-((((S)—(((S)-1-isopropoxy-1-oxopropan-2-yl)amino)(phenoxy)phosphoryl)oxy)methyl) tetrahydrofuran-3,4-diyl Dipropionate]
pEC50 [1, 10]: 6.81
CC50 at 4 days ([2]; Table 1): > 40000 nM

CC(=O)O[C@H]1[C@@H](OC(C)=O)[C@](C#N)(c2ccc3c(N)ncnn23)O[C@@H]1CO[P@@](=O)(N[C@@H](C)C(=O)OC(C)C)Oc1ccccc1 [Example 9, (2R,3R,4R,5R)-2-(4-aminopyrrolo[2,1-f][1,2,4]triazin-7-yl)-2-cyano-5-((((S)—(((S)-1-isopropoxy-1-oxopropan-2-yl)amino)(phenoxy)phosphoryl)oxy)methyl) tetrahydrofuran-3,4-diyl Diacetate]
pEC50 [1, 10]: 6.64
CC50 at 4 days ([2]; Table 1): > 50000 nM

CCOC(=O)[C@H](C)N[P@](=O)(OC[C@H]1O[C@@](C#N)(c2ccc3c(N)ncnn23)[C@H](OC(=O)C(C)C)[C@@H]1OC(=O)C(C)C)Oc1ccccc1 [Example 10, (2R,3R,4R,5R)-2-(4-aminopyrrolo[2,1-f][1,2,4]triazin-7-yl)-2-cyano-5-((((((S)-1-ethoxy-1-oxopropan-2-yl)amino)(phenoxy)phosphoryl)oxy)methyl)tetrahydrofuran-3,4-diyl bis(2-methylpropanoate)]
pEC50 [1, 10]: 7.28
CC50 at 4 days ([2]; Table 1): 10300 nM

CCC(CC)COC(=O)[C@H](C)NP(=O)(OC[C@H]1O[C@@](C#N)(c2ccc3c(N)ncnn23)[C@H](O)[C@@H]1O)Oc1c(C)cccc1C (stereo partly drawn) [Example 19, 2-Ethylbutyl ((((2R,3S,4R,5R)-5-(4-aminopyrrolo[2,1-f][1,2,4]triazin-7-yl)-5-cyano-3,4-dihydroxytetrahydrofuran-2-yl)methoxy)(2,6-dimethylphenoxy)phosphoryl)-L-alaninate]
pEC50 [1, 10]: 6.16
CC50 at 4 days ([2]; Table 1): 26500 nM

CC(=O)O[C@H]1[C@@H](OC(C)=O)[C@](C#N)(c2ccc3c(N)ncnn23)O[C@@H]1COP(=O)(N[C@@H](C)C(=O)OC1CC2(CCC2)C1)Oc1ccccc1 (stereo partly drawn) [Example 45, (2R,3R,4R,5R)-2-(4-aminopyrrolo[2,1-f][1,2,4]triazin-7-yl)-2-cyano-5-((((((S)-1-oxo-1-(spiro[3.3]heptan-2-yloxy)propan-2-yl)amino)(phenoxy)phosphoryl)oxy)methyl)tetrahydrofuran-3,4-diyl Diacetate]
pEC50 [3]: 7.51
pEC50 [4, 7]: 8.28
pEC50 [5, 8]: 7.72
pEC50 (SARS-CoV-2; [11]): 6.98

CC(C)C(=O)O[C@H]1[C@@H](OC(=O)C(C)C)[C@](C#N)(c2ccc3c(N)ncnn23)O[C@@H]1COP(=O)(N[C@@H](C)C(=O)OC1CC2(CCC2)C1)Oc1ccccc1 (stereo partly drawn) [Example 46, (2R,3R,4R,5R)-2-(4-aminopyrrolo[2,1-f][1,2,4]triazin-7-yl)-2-cyano-5-((((((S)-1-oxo-1-(spiro[3.3]heptan-2-yloxy)propan-2-yl)amino)(phenoxy)phosphoryl)oxy)methyl)tetrahydrofuran-3,4-diyl bis(2-methylpropanoate)]
pEC50 [3]: 7.28
pEC50 [4, 7]: 8.11
pEC50 [5, 8]: 7.72
pEC50 (SARS-CoV-2; [11]): 6.62

CC(=O)O[C@H]1[C@@H](OC(C)=O)[C@](C#N)(c2ccc3c(N)ncnn23)O[C@@H]1COP(=O)(N[C@@H](C)C(=O)OC1CC(C)(C)C1)Oc1ccc(C(C)(C)C)cc1 (stereo partly drawn) [Example 96, (2R,3R,4R,5R)-2-(4-aminopyrrolo[2,1-f][1,2,4]triazin-7-yl)-5-((((4-(tert-butyl)phenoxy)(((S)-1-(3,3-dimethylcyclobutoxy)-1-oxopropan-2-yl)amino)phosphoryl)oxy)methyl)-2-cyanotetrahydrofuran-3,4-diyl Diacetate]
pEC50 [3]: 7.40
pEC50 [4, 7]: 8.26
pEC50 [5, 8]: 7.52
pEC50 (SARS-CoV-2; [11]): 7.02

CC(=O)O[C@H]1[C@@H](OC(C)=O)[C@](C#N)(c2ccc3c(N)ncnn23)O[C@@H]1COP(=O)(N[C@@H](C)C(=O)OCC(C)C)Oc1ccc(C(C)(C)C)cc1 (stereo partly drawn) [Example 137, (2R,3R,4R,5R)-2-(4-aminopyrrolo[2,1-f][1,2,4]triazin-7-yl)-5-((((4-(tert-butyl)phenoxy)(((S)-1-isobutoxy-1-oxopropan-2-yl)amino)phosphoryl)oxy)methyl)-2-cyanotetrahydrofuran-3,4-diyl Diacetate]
pEC50 [3]: 7.50
pEC50 [4, 7]: 8.32
pEC50 [5, 8]: 7.66
pEC50 (SARS-CoV-2; [11]): 7.17
